Measured values reported in US11014934B2, “Antiseptic drug” (AO “TATKHIMFARMPREPARATY”, priority 2017, dated 2021).
Read-outs that look alike come from different tables or passages of the source.

Legend:
[1] = system: Escherichia coli CDC F-50; assay: Disinfectant activity in contaminated metal surface test; format: cell-based; details: for time after application to effective inhibition of bacterial growth: Escherichia coli CDC F-50, 0.1% solutions
Procedure: (§1) The preparation of the bacterial suspension was carried out similarly to the procedure for determining the disinfecting activity of compound I in suspension (see example 7). To simulate protein contamination of the metal surface, a BSA solution was added to the bacterial suspension to a final concentration of 0.4%. The surface of the metal table was drawn into squares, the number of which depended on the number of strains studied. The test surface should be clean, intact, sterile. To do this, the table was cleaned with alcohol, and then with sterile water. A microbial suspension in a volume of 0.125 ml was applied to a surface area of 5×5 cm and distributed with a sterile spatula over the entire square area. After the microbial suspension was dried, a 0.5 ml solution of compound I (miramistin and benzalkonium chloride being a control) was uniformly applied to the surface at a working concentration of 0.1 and 0.2% and distributed over the square surface with a sterile spatula, and then kept for 1, 5, and 15 minutes.
(§2) After the end of exposure, the contaminated surface was thoroughly wiped with a sterile gauze cloth (size 5×5 cm) soaked in 1 ml of a neutralizer solution and the cloth was immersed in 10 ml of sterile physiological saline in a flask, which was shaken for 10 minutes.
(§3) Plating was carried out as in example 7, in addition to the controls were carried out: • control of the sterility of the surface (before applying the microbial suspension, a metal table was washed off with a sterile swab, followed by plating on a nutrient medium); • control of the vitality of the microorganism (after applying microbial suspension on the metal table, it was washed off with a sterile swab with subsequent plating on the nutrient medium).
(§4) The contamination density of 1 cm^2 of the surface and the percentage of disinfection were calculated, taking the number of colonies removed from control surfaces as 100%. The criterion for the effectiveness of surface disinfection is not less than 99.99% of the death of test microorganisms, the disinfection time is not more than 120 minutes.

[2] = system: Staphylococcus aureus ATCC 209p; assay: as above; format: cell-based; details: for Inhibition rate (Mean ± SD) of Staphylococcus aureus ATCC 209p growth: 0.1% solution; for Inhibition rate (M ± SD) Staphylococcus aureus ATCC 209p: 0.2% solution; for time after application to effective inhibition of bacterial growth (99.99%): 0.1% solutions
Procedure: as §1, §2, §3, §4

[3] = system: Aspergillus fumigates RCPF F-1248/880; assay: Antifungal activity, 2-fold serial dilutions in Saburo glucose broth; format: cell-based, Asp. fumigates; details: for MIC: Aspergillus
Procedure: The study of the antifungal activity of compound I in vitro was carried out in accordance with [Metodicheskiye rekomendatsii No 2. Mikologicheskoye issledovaniye ob″yektov okruzhayushchey sredy i opredeleniye protivogribkovoy aktivnosti razlichnykh veshchestv.—GOU DPO SPbMAPO NII meditsinskoy mikologii im. P. N. Kashkina, GBOU VPO SZGMU im. I. I. Mechnikova Minzdrava. SPb.: Izd. Dom SPbMAPO.—2008.—S. 16. Methodological recommendations No 2. Mycological examination of environmental objects and determination of antifungal activity of various substances.—State Educational Institution of St. Petersburg Medical Academy of Postgraduate Education with Scientific Research Institute of Medical Mycology named after P. N. Kashkin, State Educational Institution of Higher Professional Education North-West State Medical University named after I. I. Mechnikov, Ministry of Health. St. Petersburg.:: Publishing House SPbMAPO.—2008.—P. 16].
The study of the antifungal activity of substances in vitro was carried out in a liquid nutrient medium (Saburo glucose broth) in biological tubes by the method of 2-fold serial dilutions. In test tubes, three parallel series of dilutions of the test substance were prepared in the following way.
Saburo's liquid broth was sterilely poured in 3 ml into each tube; 4.5 ml was poured into the first tube of the row. A total of 14 tubes were used in a row; of which the last was a control one. […] The growth of cultures was initially assessed visually, comparing the growth of microorganisms in the presence of test compounds with the growth of culture without them. […] The first lowest concentration of the substance (from a series of consecutive dilutions), where the growth of fungi was suppressed or not visually determined, was considered the minimum inhibitory concentration (MIC).
For the preparation of inoculum, were respectively used pure (2-5) days cultures of yeast and mycelial fungi, grown on Saburo's dense nutrient broth. […] The inoculum was used within 15 minutes after preparation; the purity of the fungal strains was monitored before each experiment. […]

[4] = 0.1% solution, exposure 1 min, +BSA
[5] = 0.1% solution, exposure 1 min, −BSA
[6] = 0.1% solution, exposure 5 min, +BSA
[7] = 0.1% solution, exposure 5 min, −BSA
[8] = 0.1% solution, exposure 15 min, +BSA
[9] = 0.1% solution, exposure 15 min, −BSA
[10] = 0.2% solution, exposure 1 min, +BSA
[11] = 0.2% solution, exposure 1 min, −BSA
[12] = 0.2% solution, exposure 5 min, +BSA
[13] = 0.2% solution, exposure 5 min, −BSA
[14] = 0.2% solution, exposure 15 min, +BSA
[15] = 0.2% solution, exposure 15 min, −BSA
[16] = Staphylococcus aureus ATCC 209p

Molecule | Inhibition rate (M ± SD) of Escherichia coli CDC F-50 growth [1, 4] [%] | Inhibition rate (M ± SD) of Escherichia coli CDC F-50 growth [1, 5] [%] | Inhibition rate (M ± SD) of Escherichia coli CDC F-50 growth [1, 6] [%] | Inhibition rate (M ± SD) of Escherichia coli CDC F-50 growth [1, 7] [%] | Inhibition rate (M ± SD) of Escherichia coli CDC F-50 growth [1, 8] [%] | Inhibition rate (M ± SD) of Escherichia coli CDC F-50 growth [1, 9] [%] | Inhibition rate (M ± SD) of Escherichia coli CDC F-50 growth [1, 10] [%] | Inhibition rate (M ± SD) of Escherichia coli CDC F-50 growth [1, 11] [%] | Inhibition rate (M ± SD) of Escherichia coli CDC F-50 growth [1, 12] [%] | Inhibition rate (M ± SD) of Escherichia coli CDC F-50 growth [1, 13] [%] | Inhibition rate (M ± SD) of Escherichia coli CDC F-50 growth [1, 14] [%] | Inhibition rate (M ± SD) of Escherichia coli CDC F-50 growth [1, 15] [%] | time after application to effective inhibition of bacterial growth [1] [min] | Inhibition rate (Mean ± SD) of Staphylococcus aureus ATCC 209p growth ([2]; exposure 1 min, +BSA) [%] | Inhibition rate (Mean ± SD) of Staphylococcus aureus ATCC 209p growth ([2]; exposure 1 min, −BSA) [%] | Inhibition rate (Mean ± SD) of Staphylococcus aureus ATCC 209p growth ([2]; exposure 5 min, +BSA) [%] | Inhibition rate (Mean ± SD) of Staphylococcus aureus ATCC 209p growth ([2]; exposure 5 min, −BSA) [%] | Inhibition rate (Mean ± SD) of Staphylococcus aureus ATCC 209p growth ([2]; exposure 15 min, +BSA) [%] | Inhibition rate (Mean ± SD) of Staphylococcus aureus ATCC 209p growth ([2]; exposure 15 min, −BSA) [%] | Inhibition rate (M ± SD) Staphylococcus aureus ATCC 209p ([2]; exposure 1 min, +BSA) [%] | further results
CCCCCCCCCCCC[N+](C)(C)Cc1cnc(C[N+](C)(C)CCCCCCCCCCCC)c2c1COC(CC)O2 (centres unmarked) [Compound I, 5,8-(Bis(methylene (N, N-dimethyl-N-dodecylammonium))-2-ethyl-4H-[1,3]dioxino [4,5-c]pyridiniumdichloride] | 99.92 ± 0.005 | 99.92 ± 0.005 | 99.96 ± 0.005 | 99.97 ± 0.005 | 99.99 ± 0.005 | 99.99 ± 0.00 | 99.94 ± 0.00 | 99.98 ± 0.005 | 99.99 ± 0.005 | 99.99 ± 0.005 | 100 ± 0.005 | 100 | 15 | 99.98 ± 0.00 | 99.99 | 99.99 | 99.99 | 99.99 | 99.99 | 99.99 | Inhibition rate (M ± SD) Staphylococcus aureus ATCC 209p ([2]; exposure 1 min, −BSA): 99.99%; Inhibition rate (M ± SD) Staphylococcus aureus ATCC 209p ([2]; exposure 5 min, +BSA): 99.99%; Inhibition rate (M ± SD) Staphylococcus aureus ATCC 209p ([2]; exposure 5 min, −BSA): 99.99%; Inhibition rate (M ± SD) Staphylococcus aureus ATCC 209p ([2]; exposure 15 min, +BSA): 99.99%; Inhibition rate (M ± SD) Staphylococcus aureus ATCC 209p ([2]; exposure 15 min, −BSA): 99.99%; time after application to effective inhibition of bacterial growth (99.99%) [2, 16]: 5 min; time to effective inhibition of bacterial growth ([2]; Staphylococcus aureus ATCC 209p, concentration 0.2%): 1 min; MIC ([3]; RCPFF1248/880, Asp. fumigates RCPF F-l248/880, read-out: The value of the MIC): 62.5 µg/mL
CCCCCCCCCCCCCC(=O)NCCC[N+](C)(C)Cc1ccccc1.O.[Cl-] [Miramistin, benzyldimethyl [3-(myristoylamino)propyl]-ammonium chloride monohydrate] | 99.75 ± 0.005 | 99.75 ± 0.00 | 99.97 ± 0.005 | 99.86 ± 0.005 | 99.99 ± 0.005 | 99.99 ± 0.005 | 99.83 ± 0.005 | 99.98 ± 0.005 | 99.99 ± 0.005 | 99.99 ± 0.005 | 99.99 ± 0.005 | 100 | 15 | 99.98 ± 0.00 | 99.98 ± 0.005 | 99.99 | 99.99 | 99.99 | 99.99 | 99.98 ± 0.00 | Inhibition rate (M ± SD) Staphylococcus aureus ATCC 209p ([2]; exposure 1 min, −BSA): 99.98 ± 0.005%; Inhibition rate (M ± SD) Staphylococcus aureus ATCC 209p ([2]; exposure 5 min, +BSA): 99.99%; Inhibition rate (M ± SD) Staphylococcus aureus ATCC 209p ([2]; exposure 5 min, −BSA): 99.99%; Inhibition rate (M ± SD) Staphylococcus aureus ATCC 209p ([2]; exposure 15 min, +BSA): 99.99%; Inhibition rate (M ± SD) Staphylococcus aureus ATCC 209p ([2]; exposure 15 min, −BSA): 99.99%; time after application to effective inhibition of bacterial growth (99.99%) [2, 16]: 5 min; MIC ([3]; RCPFF1248/880, read-out: The value of the MIC): 31.2 µg/mL
alkyldimethyl(phenylmethyl) ammonium chloride [Benzalconium chloride] | 99.97 ± 0.005 | 99.96 ± 0.005 | 99.97 ± 0.005 | 99.98 ± 0.005 | 99.99 ± 0.005 | 100 ± 0.00 | 99.97 ± 0.00 | 99.99 ± 0.005 | 99.99 ± 0.005 | 100 | 100 ± 0.00 | 100 | 15 | 99.99 ± 0.005 | 99.99 | 99.99 | 99.99 | 99.99 | 99.99 ± 0.005 | 99.99 | time to effective inhibition of bacterial growth ([1]; Escherichia coli CDC F-50, concentration 0.2%, test without protein load): 1 min; Inhibition rate (M ± SD) Staphylococcus aureus ATCC 209p ([2]; exposure 1 min, −BSA): 99.99%; Inhibition rate (M ± SD) Staphylococcus aureus ATCC 209p ([2]; exposure 5 min, +BSA): 99.99%; Inhibition rate (M ± SD) Staphylococcus aureus ATCC 209p ([2]; exposure 5 min, −BSA): 99.99%; Inhibition rate (M ± SD) Staphylococcus aureus ATCC 209p ([2]; exposure 15 min, +BSA): 99.99 ± 0.005%; Inhibition rate (M ± SD) Staphylococcus aureus ATCC 209p ([2]; exposure 15 min, −BSA): 100%; time after application to effective inhibition of bacterial growth (99.99%) [2, 16]: 5 min; The value of the MIC ([3]; Asp. fumigates RCPF F-l248/880): 15.6 µg/mL
